Data from ChEMBL document CHEMBL1201862, “PubChem BioAssay data set” (2004).
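Five concentrations, 48 hours, 96-well plates. Here, GI50 denotes the concentration required for 50% inhibition of growth.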 Calls of active or inactive are those of the source. Cut-off read from the data, not from the text of the source: active = GI50 up to about 1.1 µM and inactive = higher.

What was measured:
Assay in all cases: inhibition of tumour cell growth, NCI panel, 48 h
[1] = test system: Hs-578T
[2] = test system: SF-539
[3] = test system: DU-145
[4] = test system: OVCAR-4
[5] = test system: MDA-MB-231
[6] = test system: SR
[7] = test system: IGROV-1
[8] = test system: UACC-62
[9] = test system: M14
[10] = test system: NCI-H23
[11] = test system: NCI/ADR-RES
[12] = test system: K562
[13] = test system: OVCAR-5
[14] = test system: EKVX
[15] = test system: MDA-MB-435
[16] = test system: CCRF-CEM
[17] = test system: T47D
[18] = test system: MOLT-4
[19] = test system: SNB-75
[20] = test system: NCI-H522

Structure (SMILES) | GI50 [1] | GI50 [2] | GI50 [3] | GI50 [4] | GI50 [5] | GI50 [6] | GI50 [7] | GI50 [8] | GI50 [9] | GI50 [10] | GI50 [11] | GI50 [12] | GI50 [13] | GI50 [14] | GI50 [15] | GI50 [16] | GI50 [17] | GI50 [18] | GI50 [19] | GI50 [20]
Oc1cccc2cc(Br)cnc12 | 27.9 µM (inactive) | 10 µM (inactive) | 28.2 µM (inactive) | 2.86 µM (inactive) | 4.35 µM (inactive) | 3.42 µM (inactive) | 5.09 µM (inactive) | 5.96 µM (inactive) | 9.14 µM (inactive) | 5.92 µM (inactive) | 3.68 µM (inactive) | 3.21 µM (inactive) | 17.7 µM (inactive) | 5.14 µM (inactive) | 14.1 µM (inactive) | 2.37 µM (inactive) | 4.3 µM (inactive) | 3.29 µM (inactive) | 18 µM (inactive) | 2.49 µM (inactive)
COc1cc(/C=C2/CCS(=O)(=O)c3ccc(C)cc3C2=O)cc(OC)c1OC | 4.73 µM (inactive) | 2.59 µM (inactive) | 3.48 µM (inactive) | 9.38 µM (inactive) | 3.58 µM (inactive) | 2.32 µM (inactive) | 4.06 µM (inactive) | 4.12 µM (inactive) | 5.33 µM (inactive) | 3.64 µM (inactive) | 3.14 µM (inactive) | 2.06 µM (inactive) | 5.87 µM (inactive) | 12.1 µM (inactive) | 3.79 µM (inactive) | 2.85 µM (inactive) | 3.6 µM (inactive) | 3.62 µM (inactive) | 5.27 µM (inactive) | 3.39 µM (inactive)
N#Cc1c(NC(=S)Nc2ccc(Cl)cc2)sc2c1CCN(N1CCc3c(sc(NC(=S)Nc4ccc(Cl)cc4)c3C#N)C1)C2 | 44.8 µM (inactive) | 16.8 µM (inactive) | 37.8 µM (inactive) | 59.3 µM (inactive) | 12.7 µM (inactive) | > 100 µM (inactive) | 16.1 µM (inactive) | 10.6 µM (inactive) | 11 µM (inactive) | 33 µM (inactive) | 76.6 µM (inactive) | 22.4 µM (inactive) | 13.8 µM (inactive) | 18.2 µM (inactive) | 27.1 µM (inactive) | 33 µM (inactive) | 21.6 µM (inactive) | 48.1 µM (inactive) | 69 µM (inactive) | 18.2 µM (inactive)
O=C(O)c1ccc(Nc2nc3cc(C(F)(F)F)ccc3nc2-c2ccccc2)cc1 | 17.6 µM (inactive) | 21.7 µM (inactive) | 25.8 µM (inactive) | – | 32.1 µM (inactive) | 6.89 µM (inactive) | 13.4 µM (inactive) | 10.4 µM (inactive) | – | 19 µM (inactive) | 22.5 µM (inactive) | 16.8 µM (inactive) | 45.6 µM (inactive) | 11.3 µM (inactive) | 31.6 µM (inactive) | 22.3 µM (inactive) | 7.26 µM (inactive) | 24.9 µM (inactive) | 18.3 µM (inactive) | 16.3 µM (inactive)
C(=C/c1nnnn1-c1ccccc1)/Nc1ccccc1 | 31.8 µM (inactive) | 23.3 µM (inactive) | 24.7 µM (inactive) | – | 39 µM (inactive) | > 10 µM (inactive) | 35.2 µM (inactive) | 20.2 µM (inactive) | 26.1 µM (inactive) | 23.7 µM (inactive) | 24.6 µM (inactive) | 20.7 µM (inactive) | 24.8 µM (inactive) | 40.6 µM (inactive) | 26.1 µM (inactive) | 25.5 µM (inactive) | 29.6 µM (inactive) | 21.7 µM (inactive) | 27.5 µM (inactive) | 20.8 µM (inactive)
O=C1CSC2=NC3=C(CSC/C3=C\c3ccccc3)C(c3ccccc3)N12 (stereo unspecified) | > 100 µM (inactive) | > 100 µM (inactive) | > 100 µM (inactive) | > 100 µM (inactive) | > 100 µM (inactive) | 65.3 µM (inactive) | > 100 µM (inactive) | > 100 µM (inactive) | 41.5 µM (inactive) | 62.1 µM (inactive) | > 100 µM (inactive) | 39.4 µM (inactive) | > 100 µM (inactive) | > 100 µM (inactive) | 65.5 µM (inactive) | 33.8 µM (inactive) | 52.2 µM (inactive) | 53.5 µM (inactive) | 29.6 µM (inactive) | –
C[C@@H](CC(=O)OCc1ccccc1)OC1OC(COC(=O)C(C)(C)C)C(OC(=O)C(C)(C)C)C(OC(=O)C(C)(C)C)C1OC(=O)C(C)(C)C (stereo partly specified) | > 100 µM (inactive) | > 100 µM (inactive) | > 100 µM (inactive) | > 100 µM (inactive) | > 100 µM (inactive) | > 100 µM (inactive) | > 100 µM (inactive) | > 100 µM (inactive) | > 100 µM (inactive) | > 100 µM (inactive) | > 100 µM (inactive) | > 100 µM (inactive) | > 100 µM (inactive) | > 100 µM (inactive) | > 100 µM (inactive) | > 100 µM (inactive) | > 100 µM (inactive) | 94.4 µM (inactive) | > 100 µM (inactive) | > 100 µM (inactive)
Cc1ccc(N2C(=O)CC(=O)N(NC(=O)C(C)Oc3ccccc3C)C2=S)cc1 (stereo unspecified) | > 100 µM (inactive) | > 100 µM (inactive) | > 100 µM (inactive) | > 100 µM (inactive) | > 100 µM (inactive) | 57.1 µM (inactive) | > 100 µM (inactive) | > 100 µM (inactive) | > 100 µM (inactive) | > 100 µM (inactive) | > 100 µM (inactive) | 65.9 µM (inactive) | > 100 µM (inactive) | > 100 µM (inactive) | > 100 µM (inactive) | 1.6 µM (inactive) | > 100 µM (inactive) | 48 µM (inactive) | > 100 µM (inactive) | > 100 µM (inactive)
Nc1nc(Nc2ccccc2)sc1C(=O)c1cccs1 | 15.8 µM (inactive) | 10.7 µM (inactive) | 8.97 µM (inactive) | 15.5 µM (inactive) | 28.7 µM (inactive) | 1.74 µM (inactive) | 11.7 µM (inactive) | 15.7 µM (inactive) | 21.1 µM (inactive) | 16.2 µM (inactive) | 21.2 µM (inactive) | 9.86 µM (inactive) | 11.7 µM (inactive) | 13.6 µM (inactive) | 15 µM (inactive) | 2.81 µM (inactive) | 21.2 µM (inactive) | 6.75 µM (inactive) | – | 11 µM (inactive)
COc1cc2c3c(c1O)C1(C=CC(=O)C=C1)CC3N(C)CC2 (stereo unspecified) [GLAZIOVINE] | 14.4 µM (inactive) | 10.1 µM (inactive) | 13.2 µM (inactive) | 5.97 µM (inactive) | 4.86 µM (inactive) | 3.3 µM (inactive) | 6.22 µM (inactive) | 11.1 µM (inactive) | 12.1 µM (inactive) | 11.2 µM (inactive) | 2.72 µM (inactive) | 5.2 µM (inactive) | 19.3 µM (inactive) | 8.41 µM (inactive) | 11 µM (inactive) | 2.31 µM (inactive) | 11.7 µM (inactive) | 4.26 µM (inactive) | 4.57 µM (inactive) | 1.93 µM (inactive)
N#CCN1CCCN(CC#N)CCN(CC#N)CCCN(CC#N)CC1 | > 100 µM (inactive) | > 100 µM (inactive) | > 100 µM (inactive) | > 100 µM (inactive) | > 100 µM (inactive) | > 100 µM (inactive) | > 100 µM (inactive) | > 100 µM (inactive) | > 100 µM (inactive) | > 100 µM (inactive) | > 100 µM (inactive) | > 100 µM (inactive) | > 100 µM (inactive) | – | > 100 µM (inactive) | 89.9 µM (inactive) | > 100 µM (inactive) | > 100 µM (inactive) | > 100 µM (inactive) | > 100 µM (inactive)
CC1=C(C(=O)OCCO[N+](=O)[O-])C(c2ccccc2[N+](=O)[O-])C(C(=O)OC(C)C)=C(C)N1 (stereo unspecified) | 14.8 µM (inactive) | 17.7 µM (inactive) | 20.7 µM (inactive) | 18 µM (inactive) | 15.6 µM (inactive) | 44.9 µM (inactive) | 15.6 µM (inactive) | 14.1 µM (inactive) | 15.8 µM (inactive) | 20.7 µM (inactive) | 16.8 µM (inactive) | 49.1 µM (inactive) | 14.9 µM (inactive) | 18.3 µM (inactive) | 15 µM (inactive) | 33.2 µM (inactive) | 13 µM (inactive) | 40.9 µM (inactive) | – | 16 µM (inactive)
O=C(CNS(=O)(=O)Cc1ccccc1)NNc1ccccc1 | > 100 µM (inactive) | 3.05 µM (inactive) | > 100 µM (inactive) | > 100 µM (inactive) | > 100 µM (inactive) | > 100 µM (inactive) | 72.8 µM (inactive) | 1.12 µM (active) | > 63.7 µM (inactive) | > 100 µM (inactive) | > 100 µM (inactive) | 2.5 µM (inactive) | > 100 µM (inactive) | > 69.5 µM (inactive) | 6.95 µM (inactive) | > 100 µM (inactive) | > 42.3 µM (inactive) | > 100 µM (inactive) | > 36.6 µM (inactive) | –
OC1(c2ccccc2)CSc2ncnn21 (stereo unspecified) | > 100 µM (inactive) | > 100 µM (inactive) | 41.1 µM (inactive) | > 100 µM (inactive) | > 100 µM (inactive) | > 100 µM (inactive) | > 100 µM (inactive) | > 100 µM (inactive) | > 100 µM (inactive) | > 100 µM (inactive) | > 100 µM (inactive) | > 100 µM (inactive) | – | > 100 µM (inactive) | > 100 µM (inactive) | > 100 µM (inactive) | > 100 µM (inactive) | > 100 µM (inactive) | > 100 µM (inactive) | > 100 µM (inactive)
